Assays:
[1] = system: brains, heart, liver, muscle, and DRG of the NHPs; test: Maturation of TTM-001 and TTM-002 capsids, NGS enrichment in NHP tissues; format: in vivo; conditions: relative to AAV9 control
Summary of the method: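 Variants carry mutations within and flanking the loop IV peptide insert: positions 450–466 were triplet-randomized, while positions 449–466 received low-frequency point mutations. The combined pool went into two NHPs, and each peptide was scored by NGS enrichment ratio against AAV9.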

[2] = system: brain; test: Matured TTM-001 and TTM-002 variants, NGS enrichment in mouse brain; format: in vivo, mice; conditions: relative to AAV9 control
[3] = NGS fold-enrichment of matured AAV capsid variants, NHP brain, RNA
[4] = NGS fold-enrichment of RNA, NHP brain
[5] = NGS fold-enrichment, NHP liver DNA
[6] = NGS fold-enrichment, NHP liver RNA
[7] = NGS fold-enrichment, NHP muscle
[8] = NGS fold-enrichment, mouse brain
[9] = NGS fold-enrichment, DRG of NHPs
[10] = NGS fold-enrichment, RNA, brain of NHPs
[11] = NGS fold-enrichment, heart of NHPs
[12] = NGS fold-enrichment, liver DNA of NHPs
[13] = NGS fold-enrichment, liver RNA of NHPs
[14] = NGS fold-enrichment, muscle of NHPs
[15] = NGS fold-enrichment, brain of mice

KTINGSGSPHSYHVNQQT
Fold Enrichment relative to AAV9, Brain (NHP) [1, 3]: 50.486 fold
Fold Enrichment relative to AAV9, DRG (NHP) ([1]; NHP DRG): 0.000 fold
Fold Enrichment relative to AAV9, Heart (NHP) ([1]; NHP heart): 0.056 fold
Fold Enrichment relative to AAV9, Liver DNA (NHP) ([1]; NHP liver, DNA): 0.275 fold
Fold Enrichment relative to AAV9, Liver RNA (NHP) ([1]; NHP liver, RNA): 0.528 fold
Fold Enrichment relative to AAV9, Muscle (NHP) ([1]; NHP muscle): 0.059 fold
Fold Enrichment relative to AAV9, Brain (Mouse) ([2]; mouse brain): 179.489 fold

KTINGSGSPHTKAQNPPT
Fold Enrichment relative to AAV9, Brain (NHP) [1, 4]: 147.061 fold
Fold Enrichment relative to AAV9, DRG (NHP) ([1]; NGS fold-enrichment, NHP DRG): 0.000 fold
Fold Enrichment relative to AAV9, Heart (NHP) ([1]; NGS fold-enrichment, NHP heart): 0.727 fold
Fold Enrichment relative to AAV9, Liver DNA (NHP) [1, 5]: 0.000 fold
Fold Enrichment relative to AAV9, Liver RNA (NHP) [1, 6]: 0.000 fold
Fold Enrichment relative to AAV9, Muscle (NHP) [1, 7]: 0.000 fold
Fold Enrichment relative to AAV9, Brain (Mouse) [2, 8]: 34.425 fold

KTINGSGSPHTKAQNPQS
Fold Enrichment relative to AAV9, DRG (NHP) [1, 9]: 0.000 fold
Fold Enrichment relative to AAV9, Brain (NHP) [1, 10]: 72.594 fold
Fold Enrichment relative to AAV9, Heart (NHP) [1, 11]: 0.000 fold
Fold Enrichment relative to AAV9, Liver DNA (NHP) [1, 12]: 0.130 fold
Fold Enrichment relative to AAV9, Liver RNA (NHP) [1, 13]: 0.000 fold
Fold Enrichment relative to AAV9, Muscle (NHP) [1, 14]: 0.000 fold
Fold Enrichment relative to AAV9, Brain (Mouse) [2, 15]: 62.508 fold

KTINGSGSSHSKAQNQQT
Fold Enrichment relative to AAV9, Brain (NHP) [1, 3]: 54.292 fold
Fold Enrichment relative to AAV9, DRG (NHP) ([1]; NHP DRG): 1.709 fold
Fold Enrichment relative to AAV9, Heart (NHP) ([1]; NHP heart): 1.870 fold
Fold Enrichment relative to AAV9, Liver DNA (NHP) ([1]; NHP liver, DNA): 0.458 fold
Fold Enrichment relative to AAV9, Liver RNA (NHP) ([1]; NHP liver, RNA): 1.075 fold
Fold Enrichment relative to AAV9, Muscle (NHP) ([1]; NHP muscle): 1.287 fold
Fold Enrichment relative to AAV9, Brain (Mouse) ([2]; mouse brain): 67.731 fold

KTINGSVSPHGKAQNQLT (peptide inserted in AAV capsid)
Fold Enrichment relative to AAV9, DRG (NHP) [1, 9]: 0.000 fold
Fold Enrichment relative to AAV9, Brain (NHP) [1, 10]: 73.525 fold
Fold Enrichment relative to AAV9, Heart (NHP) [1, 11]: 0.061 fold
Fold Enrichment relative to AAV9, Liver DNA (NHP) [1, 12]: 0.053 fold
Fold Enrichment relative to AAV9, Liver RNA (NHP) [1, 13]: 0.000 fold
Fold Enrichment relative to AAV9, Muscle (NHP) [1, 14]: 0.067 fold
Fold Enrichment relative to AAV9, Brain (Mouse) [2, 15]: 51.358 fold

KTINGTGSPHSKAPNQLT
Fold Enrichment relative to AAV9, Brain (NHP) [1, 3]: 58.738 fold
Fold Enrichment relative to AAV9, DRG (NHP) ([1]; NHP DRG): 0.000 fold
Fold Enrichment relative to AAV9, Heart (NHP) ([1]; NHP heart): 0.000 fold
Fold Enrichment relative to AAV9, Liver DNA (NHP) ([1]; NHP liver, DNA): 0.035 fold
Fold Enrichment relative to AAV9, Liver RNA (NHP) ([1]; NHP liver, RNA): 0.229 fold
Fold Enrichment relative to AAV9, Muscle (NHP) ([1]; NHP muscle): 0.000 fold
Fold Enrichment relative to AAV9, Brain (Mouse) ([2]; mouse brain): 86.939 fold

KTINGTGSPHSKAQNHQI
Fold Enrichment relative to AAV9, Brain (NHP) [1, 4]: 77.089 fold
Fold Enrichment relative to AAV9, DRG (NHP) [1, 9]: 0.171 fold
Fold Enrichment relative to AAV9, DRG (NHP) ([1]; NGS fold-enrichment, NHP DRG): 0.171 fold
Fold Enrichment relative to AAV9, Heart (NHP) ([1]; NGS fold-enrichment, NHP heart): 0.000 fold
Fold Enrichment relative to AAV9, Liver DNA (NHP) [1, 5]: 0.166 fold
Fold Enrichment relative to AAV9, Liver RNA (NHP) [1, 6]: 0.000 fold
Fold Enrichment relative to AAV9, Muscle (NHP) [1, 7]: 0.000 fold
Fold Enrichment relative to AAV9, Brain (NHP) [1, 10]: 77.089 fold
Fold Enrichment relative to AAV9, Heart (NHP) [1, 11]: 0.000 fold
Fold Enrichment relative to AAV9, Liver DNA (NHP) [1, 12]: 0.166 fold
Fold Enrichment relative to AAV9, Liver RNA (NHP) [1, 13]: 0.000 fold
Fold Enrichment relative to AAV9, Muscle (NHP) [1, 14]: 0.000 fold
Fold Enrichment relative to AAV9, Brain (Mouse) [2, 15]: 54.281 fold
Fold Enrichment relative to AAV9, Brain (Mouse) [2, 8]: 54.281 fold

KTINGTGSPHSKAQNQQM
Fold Enrichment relative to AAV9, DRG (NHP) [1, 9]: 0.000 fold
Fold Enrichment relative to AAV9, Brain (NHP) [1, 10]: 62.151 fold
Fold Enrichment relative to AAV9, Heart (NHP) [1, 11]: 0.000 fold
Fold Enrichment relative to AAV9, Liver DNA (NHP) [1, 12]: 0.000 fold
Fold Enrichment relative to AAV9, Liver RNA (NHP) [1, 13]: 0.000 fold
Fold Enrichment relative to AAV9, Muscle (NHP) [1, 14]: 0.000 fold
Fold Enrichment relative to AAV9, Brain (Mouse) [2, 15]: 62.376 fold

KTINGYDSPHKSGQYQHT
Fold Enrichment relative to AAV9, Brain (NHP) [1, 4]: 81.534 fold
Fold Enrichment relative to AAV9, DRG (NHP) ([1]; NGS fold-enrichment, NHP DRG): 0.000 fold
Fold Enrichment relative to AAV9, Heart (NHP) ([1]; NGS fold-enrichment, NHP heart): 0.036 fold
Fold Enrichment relative to AAV9, Liver DNA (NHP) [1, 5]: 0.000 fold
Fold Enrichment relative to AAV9, Liver RNA (NHP) [1, 6]: 0.000 fold
Fold Enrichment relative to AAV9, Muscle (NHP) [1, 7]: 0.000 fold
Fold Enrichment relative to AAV9, Brain (Mouse) [2, 8]: 10.524 fold

KTINKEGSPHSKAQNQQT
Fold Enrichment relative to AAV9, Brain (NHP) [1, 3]: 53.006 fold
Fold Enrichment relative to AAV9, DRG (NHP) ([1]; NHP DRG): 0.000 fold
Fold Enrichment relative to AAV9, Heart (NHP) ([1]; NHP heart): 0.029 fold
Fold Enrichment relative to AAV9, Liver DNA (NHP) ([1]; NHP liver, DNA): 0.111 fold
Fold Enrichment relative to AAV9, Liver RNA (NHP) ([1]; NHP liver, RNA): 0.177 fold
Fold Enrichment relative to AAV9, Muscle (NHP) ([1]; NHP muscle): 0.000 fold
Fold Enrichment relative to AAV9, Brain (Mouse) ([2]; mouse brain): 64.520 fold

KTINVSGSPHSKAQGQQT
Fold Enrichment relative to AAV9, Brain (NHP) [1, 3]: 55.870 fold
Fold Enrichment relative to AAV9, DRG (NHP) ([1]; NHP DRG): 0.000 fold
Fold Enrichment relative to AAV9, Heart (NHP) ([1]; NHP heart): 0.191 fold
Fold Enrichment relative to AAV9, Liver DNA (NHP) ([1]; NHP liver, DNA): 0.040 fold
Fold Enrichment relative to AAV9, Liver RNA (NHP) ([1]; NHP liver, RNA): 0.592 fold
Fold Enrichment relative to AAV9, Muscle (NHP) ([1]; NHP muscle): 0.000 fold
Fold Enrichment relative to AAV9, Brain (Mouse) ([2]; mouse brain): 87.211 fold

KTIPAIGSPHSKAQNQQT
Fold Enrichment relative to AAV9, Brain (NHP) [1, 3]: 52.346 fold
Fold Enrichment relative to AAV9, DRG (NHP) ([1]; NHP DRG): 0.000 fold
Fold Enrichment relative to AAV9, Heart (NHP) ([1]; NHP heart): 0.009 fold
Fold Enrichment relative to AAV9, Liver DNA (NHP) ([1]; NHP liver, DNA): 0.134 fold
Fold Enrichment relative to AAV9, Liver RNA (NHP) ([1]; NHP liver, RNA): 0.034 fold
Fold Enrichment relative to AAV9, Muscle (NHP) ([1]; NHP muscle): 0.000 fold
Fold Enrichment relative to AAV9, Brain (Mouse) ([2]; mouse brain): 51.949 fold

KTIPIDGSPHSKAQNQQT
Fold Enrichment relative to AAV9, DRG (NHP) [1, 9]: 0.000 fold
Fold Enrichment relative to AAV9, Brain (NHP) [1, 10]: 64.421 fold
Fold Enrichment relative to AAV9, Heart (NHP) [1, 11]: 0.047 fold
Fold Enrichment relative to AAV9, Liver DNA (NHP) [1, 12]: 0.936 fold
Fold Enrichment relative to AAV9, Liver RNA (NHP) [1, 13]: 0.234 fold
Fold Enrichment relative to AAV9, Muscle (NHP) [1, 14]: 0.000 fold
Fold Enrichment relative to AAV9, Brain (Mouse) [2, 15]: 76.826 fold

KTIPKNGSPHSKAQNQQT
Fold Enrichment relative to AAV9, Brain (NHP) [1, 3]: 53.824 fold
Fold Enrichment relative to AAV9, DRG (NHP) ([1]; NHP DRG): 0.000 fold
Fold Enrichment relative to AAV9, Heart (NHP) ([1]; NHP heart): 0.032 fold
Fold Enrichment relative to AAV9, Liver DNA (NHP) ([1]; NHP liver, DNA): 0.178 fold
Fold Enrichment relative to AAV9, Liver RNA (NHP) ([1]; NHP liver, RNA): 0.115 fold
Fold Enrichment relative to AAV9, Muscle (NHP) ([1]; NHP muscle): 0.000 fold
Fold Enrichment relative to AAV9, Brain (Mouse) ([2]; mouse brain): 77.458 fold

KTIPMEGSPHSKAQNQQT
Fold Enrichment relative to AAV9, Brain (NHP) [1, 3]: 56.560 fold
Fold Enrichment relative to AAV9, DRG (NHP) ([1]; NHP DRG): 0.000 fold
Fold Enrichment relative to AAV9, Heart (NHP) ([1]; NHP heart): 0.000 fold
Fold Enrichment relative to AAV9, Liver DNA (NHP) ([1]; NHP liver, DNA): 0.371 fold
Fold Enrichment relative to AAV9, Liver RNA (NHP) ([1]; NHP liver, RNA): 1.824 fold
Fold Enrichment relative to AAV9, Muscle (NHP) ([1]; NHP muscle): 0.000 fold
Fold Enrichment relative to AAV9, Brain (Mouse) ([2]; mouse brain): 89.951 fold

KTIQDGGSPHSKAQNQQT
Fold Enrichment relative to AAV9, DRG (NHP) [1, 9]: 0.000 fold
Fold Enrichment relative to AAV9, Brain (NHP) [1, 10]: 59.865 fold
Fold Enrichment relative to AAV9, Heart (NHP) [1, 11]: 0.000 fold
Fold Enrichment relative to AAV9, Liver DNA (NHP) [1, 12]: 0.789 fold
Fold Enrichment relative to AAV9, Liver RNA (NHP) [1, 13]: 1.435 fold
Fold Enrichment relative to AAV9, Muscle (NHP) [1, 14]: 0.116 fold
Fold Enrichment relative to AAV9, Brain (Mouse) [2, 15]: 87.522 fold

KTIRDAGSPHSKAQNQQT
Fold Enrichment relative to AAV9, DRG (NHP) [1, 9]: 0.000 fold
Fold Enrichment relative to AAV9, Brain (NHP) [1, 10]: 60.346 fold
Fold Enrichment relative to AAV9, Heart (NHP) [1, 11]: 0.000 fold
Fold Enrichment relative to AAV9, Liver DNA (NHP) [1, 12]: 0.251 fold
Fold Enrichment relative to AAV9, Liver RNA (NHP) [1, 13]: 0.141 fold
Fold Enrichment relative to AAV9, Muscle (NHP) [1, 14]: 0.000 fold
Fold Enrichment relative to AAV9, Brain (Mouse) [2, 15]: 113.179 fold

KTIRENGSPHSKAQNQQT
Fold Enrichment relative to AAV9, Brain (NHP) [1, 3]: 55.605 fold
Fold Enrichment relative to AAV9, DRG (NHP) ([1]; NHP DRG): 0.000 fold
Fold Enrichment relative to AAV9, Heart (NHP) ([1]; NHP heart): 0.000 fold
Fold Enrichment relative to AAV9, Liver DNA (NHP) ([1]; NHP liver, DNA): 0.257 fold
Fold Enrichment relative to AAV9, Liver RNA (NHP) ([1]; NHP liver, RNA): 0.131 fold
Fold Enrichment relative to AAV9, Muscle (NHP) ([1]; NHP muscle): 0.016 fold
Fold Enrichment relative to AAV9, Brain (Mouse) ([2]; mouse brain): 95.931 fold

From patent publication US20260250318A1, “COMPOSITIONS AND METHODS FOR CROSSING THE BLOOD BRAIN BARRIER” (VOYAGER THERAPEUTICS, INC., priority 2022, published 2026)
